Assay results: PubChem BioAssay (NCI)
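Cells were grown in 96-well plates and exposed to each compound for 48 hours at five concentrations; endpoints were interpolated linearly between bracketing concentrations, or set to the highest concentration if not reached. TGI marks complete inhibition of growth.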

Key:
Test in all cases: NCI tumour cell line growth inhibition, 48 h
HOP-62 NSCLC = tested on: HOP-62 NSCLC
MALME-3M melanoma = tested on: MALME-3M melanoma
MCF7 breast = tested on: MCF7 breast
MDA-MB-435 = tested on: MDA-MB-435
MOLT-4 leukemia = tested on: MOLT-4 leukemia
NCI-H460 lung = tested on: NCI-H460 lung
OVCAR-8 ovarian = tested on: OVCAR-8 ovarian
PC-3 prostate = tested on: PC-3 prostate
SK-MEL-28 melanoma = tested on: SK-MEL-28 melanoma
SR leukemia = tested on: SR leukemia

Structure (SMILES) | TGI (HOP-62 NSCLC) | TGI (MALME-3M melanoma) | TGI (MCF7 breast) | TGI (MDA-MB-435) | TGI (MOLT-4 leukemia) | TGI (NCI-H460 lung) | TGI (OVCAR-8 ovarian) | TGI (PC-3 prostate) | TGI (SK-MEL-28 melanoma) | TGI (SR leukemia)
Cc1ccc(-c2nc(C)c(C(=O)Nc3ccc(Cl)cc3)s2)cc1 | 26.2 µM | > 100 µM | > 100 µM | > 100 µM | > 100 µM | > 100 µM | 36.9 µM | > 100 µM | > 100 µM | > 100 µM
CCOC(=O)c1c2c3c(cccc3[nH]c1=O)Sc1ncccc1-2 | > 100 µM | > 100 µM | > 100 µM | > 100 µM | 68.5 µM | > 100 µM | > 100 µM | 74.6 µM | > 100 µM | > 100 µM
C=CCN1CCC(OC(=O)C(O)(C#CC)C2CCCC2)CC1 (stereo not given) | > 100 µM | > 100 µM | > 100 µM | > 100 µM | > 100 µM | > 100 µM | > 100 µM | > 100 µM | > 100 µM | > 100 µM
COc1cc(C2SC(N)=Nc3c2c(C)nn3C(=O)c2ccccc2O)cc(OC)c1OC (stereo not given) | > 10 µM | > 10 µM | > 10 µM | > 10 µM | > 10 µM | > 10 µM | > 10 µM | > 10 µM | > 10 µM | > 10 µM
